Source: patent US12427210B2, “Compounds comprising a fibroblast activation protein ligand and use thereof” (priority 2019, dated 2025)
Numbered stars: 1 amine (or outer) side, 2 acyl side, 3 side chain; on linkers, the order of the positions; unused ones are H or OH. Bridge positions count the residues as written; N and C are the ends. Peptide text beside a SMILES is read from it. * marks the point of attachment. X1 = O=C(O)CN1CCN(CC(=O)O)CCN(CC(=O)N2CCN(Cc3cc(C[*:1])cc(C[*:2])c3)CC2)CCN(CC(=O)O)CC1; Hexanoyl = CCCCCC(=O)*

How the values were obtained:
H2 (h) = H2 (h) (Homo sapiens, UniProt P25021); test: biochemical; conditions: read-out: % Inhibition of Specific Binding
Ataxin3 = Ataxin3 (Homo sapiens, UniProt P54252); test: biochemical; conditions: read-out: Percentage inhibition (%)
alpha 1A (h) = biological target: T1, alpha 1A (h) (Homo sapiens, UniProt P35348); test: biochemical; conditions: read-out: % Inhibition of Specific Binding
T1 sequence (P35348 1-466): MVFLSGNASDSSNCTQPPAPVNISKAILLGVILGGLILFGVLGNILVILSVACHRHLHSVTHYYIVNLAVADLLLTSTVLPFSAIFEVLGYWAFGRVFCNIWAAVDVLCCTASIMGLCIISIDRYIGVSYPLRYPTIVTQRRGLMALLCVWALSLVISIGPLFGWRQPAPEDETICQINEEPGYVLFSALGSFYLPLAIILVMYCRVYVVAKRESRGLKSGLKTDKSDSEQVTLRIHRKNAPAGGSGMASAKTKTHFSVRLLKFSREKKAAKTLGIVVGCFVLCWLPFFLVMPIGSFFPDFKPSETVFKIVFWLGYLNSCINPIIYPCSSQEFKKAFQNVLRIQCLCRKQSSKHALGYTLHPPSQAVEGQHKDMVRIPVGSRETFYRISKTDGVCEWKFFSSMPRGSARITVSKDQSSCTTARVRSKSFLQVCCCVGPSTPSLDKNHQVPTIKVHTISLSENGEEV

[1] = biological target: N neuronal alpha 4beta 2 (h) (Homo sapiens, UniProt P17787+P43681); test: biochemical; conditions: read-out: % Inhibition of Specific Binding
[2] = biological target: T2, Ubiquitin carboxyl-terminal hydrolase 5 (Homo sapiens, UniProt P45974); test: biochemical; conditions: read-out: Percentage inhibition (%)
T2 sequence (P45974 1-858): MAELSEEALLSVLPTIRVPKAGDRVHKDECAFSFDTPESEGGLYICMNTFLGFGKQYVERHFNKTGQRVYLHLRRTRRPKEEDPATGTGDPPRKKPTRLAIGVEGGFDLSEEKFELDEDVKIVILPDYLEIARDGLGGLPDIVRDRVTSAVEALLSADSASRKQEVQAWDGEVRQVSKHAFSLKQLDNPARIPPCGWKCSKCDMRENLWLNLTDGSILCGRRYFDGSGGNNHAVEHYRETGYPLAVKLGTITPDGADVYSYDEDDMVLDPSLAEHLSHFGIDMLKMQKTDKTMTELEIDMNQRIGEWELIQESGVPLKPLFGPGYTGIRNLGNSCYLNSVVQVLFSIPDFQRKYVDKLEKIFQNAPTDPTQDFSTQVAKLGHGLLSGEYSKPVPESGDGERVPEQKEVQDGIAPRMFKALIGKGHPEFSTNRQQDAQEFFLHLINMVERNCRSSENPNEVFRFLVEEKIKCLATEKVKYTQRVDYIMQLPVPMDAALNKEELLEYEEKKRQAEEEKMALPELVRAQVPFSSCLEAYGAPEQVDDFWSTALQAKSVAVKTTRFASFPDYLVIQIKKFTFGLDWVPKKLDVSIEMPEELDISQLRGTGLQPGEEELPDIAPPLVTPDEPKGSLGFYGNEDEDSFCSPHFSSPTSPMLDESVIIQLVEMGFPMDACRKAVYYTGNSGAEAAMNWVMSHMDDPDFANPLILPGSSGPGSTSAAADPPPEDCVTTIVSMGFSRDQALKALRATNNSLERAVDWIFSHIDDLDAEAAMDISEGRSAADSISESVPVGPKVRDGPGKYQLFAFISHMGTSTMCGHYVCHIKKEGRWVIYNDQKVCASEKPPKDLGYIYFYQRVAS

ETA (h) = ETA (h) (Homo sapiens, UniProt P25101); test: biochemical; conditions: read-out: % Inhibition of Specific Binding
DPP3 = DPP3 (Homo sapiens, UniProt Q9NY33); test: biochemical; conditions: read-out: Percentage inhibition (%)
in vivo = conditions: mouse, iv; for clearance: in vivo; for AUC(0-inf) / C0 / half-life / Vd: plasma; for Vd: mouse plasma

Sequence of Ataxin3 (P54252 whole entry, species assumed): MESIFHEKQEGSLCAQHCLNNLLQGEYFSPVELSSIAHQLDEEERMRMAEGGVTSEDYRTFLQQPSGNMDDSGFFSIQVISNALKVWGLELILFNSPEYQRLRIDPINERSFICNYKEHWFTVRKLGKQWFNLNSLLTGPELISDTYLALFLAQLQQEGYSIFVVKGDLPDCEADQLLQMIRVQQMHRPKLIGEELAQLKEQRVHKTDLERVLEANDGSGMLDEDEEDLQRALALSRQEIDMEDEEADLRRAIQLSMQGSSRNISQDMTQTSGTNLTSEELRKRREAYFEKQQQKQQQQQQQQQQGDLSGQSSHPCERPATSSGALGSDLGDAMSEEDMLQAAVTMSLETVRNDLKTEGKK
Sequence of DPP3 (Q9NY33 whole entry, species assumed): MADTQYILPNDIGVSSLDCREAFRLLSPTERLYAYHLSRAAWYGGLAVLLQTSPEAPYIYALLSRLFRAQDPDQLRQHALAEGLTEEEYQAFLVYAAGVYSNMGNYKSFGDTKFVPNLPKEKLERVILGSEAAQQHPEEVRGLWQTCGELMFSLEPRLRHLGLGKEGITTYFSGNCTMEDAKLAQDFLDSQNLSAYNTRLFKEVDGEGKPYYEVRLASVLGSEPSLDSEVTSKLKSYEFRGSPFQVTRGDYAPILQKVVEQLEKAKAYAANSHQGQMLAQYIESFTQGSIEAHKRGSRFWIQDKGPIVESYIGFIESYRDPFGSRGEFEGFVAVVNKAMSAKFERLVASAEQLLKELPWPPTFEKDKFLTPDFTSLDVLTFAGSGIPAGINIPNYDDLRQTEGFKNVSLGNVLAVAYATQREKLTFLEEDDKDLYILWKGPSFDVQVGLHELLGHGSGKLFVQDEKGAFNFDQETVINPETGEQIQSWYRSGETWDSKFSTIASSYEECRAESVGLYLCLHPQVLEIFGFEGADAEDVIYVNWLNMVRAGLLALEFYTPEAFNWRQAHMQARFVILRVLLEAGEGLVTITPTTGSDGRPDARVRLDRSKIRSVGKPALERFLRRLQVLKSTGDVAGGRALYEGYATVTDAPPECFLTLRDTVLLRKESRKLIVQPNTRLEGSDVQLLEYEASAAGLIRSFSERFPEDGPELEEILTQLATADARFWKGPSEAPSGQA
Sequence of H2 (h) (P25021 whole entry): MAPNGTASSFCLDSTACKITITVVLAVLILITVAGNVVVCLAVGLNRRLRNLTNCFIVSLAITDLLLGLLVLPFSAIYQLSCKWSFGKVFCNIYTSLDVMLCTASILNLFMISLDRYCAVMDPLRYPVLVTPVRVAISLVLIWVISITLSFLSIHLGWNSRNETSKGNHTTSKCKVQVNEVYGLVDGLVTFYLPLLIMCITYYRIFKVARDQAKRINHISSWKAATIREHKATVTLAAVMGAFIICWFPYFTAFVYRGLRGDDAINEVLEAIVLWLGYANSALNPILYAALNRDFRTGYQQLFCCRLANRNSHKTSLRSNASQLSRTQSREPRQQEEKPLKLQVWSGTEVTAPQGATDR
Sequence of N neuronal alpha 4beta 2 (h) (P17787 26-502): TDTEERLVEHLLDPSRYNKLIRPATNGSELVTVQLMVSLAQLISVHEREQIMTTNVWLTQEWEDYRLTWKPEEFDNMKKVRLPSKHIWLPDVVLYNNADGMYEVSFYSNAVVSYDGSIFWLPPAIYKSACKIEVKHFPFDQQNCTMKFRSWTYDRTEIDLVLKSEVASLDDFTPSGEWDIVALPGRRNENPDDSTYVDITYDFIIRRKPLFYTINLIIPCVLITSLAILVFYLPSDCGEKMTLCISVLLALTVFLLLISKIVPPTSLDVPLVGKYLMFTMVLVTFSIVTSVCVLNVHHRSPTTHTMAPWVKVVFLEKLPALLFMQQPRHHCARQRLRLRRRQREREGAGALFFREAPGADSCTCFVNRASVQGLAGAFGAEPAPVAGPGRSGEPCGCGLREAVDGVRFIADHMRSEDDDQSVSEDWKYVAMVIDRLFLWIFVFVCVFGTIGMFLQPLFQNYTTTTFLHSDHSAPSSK
Sequence of N neuronal alpha 4beta 2 (h) (P43681 29-627): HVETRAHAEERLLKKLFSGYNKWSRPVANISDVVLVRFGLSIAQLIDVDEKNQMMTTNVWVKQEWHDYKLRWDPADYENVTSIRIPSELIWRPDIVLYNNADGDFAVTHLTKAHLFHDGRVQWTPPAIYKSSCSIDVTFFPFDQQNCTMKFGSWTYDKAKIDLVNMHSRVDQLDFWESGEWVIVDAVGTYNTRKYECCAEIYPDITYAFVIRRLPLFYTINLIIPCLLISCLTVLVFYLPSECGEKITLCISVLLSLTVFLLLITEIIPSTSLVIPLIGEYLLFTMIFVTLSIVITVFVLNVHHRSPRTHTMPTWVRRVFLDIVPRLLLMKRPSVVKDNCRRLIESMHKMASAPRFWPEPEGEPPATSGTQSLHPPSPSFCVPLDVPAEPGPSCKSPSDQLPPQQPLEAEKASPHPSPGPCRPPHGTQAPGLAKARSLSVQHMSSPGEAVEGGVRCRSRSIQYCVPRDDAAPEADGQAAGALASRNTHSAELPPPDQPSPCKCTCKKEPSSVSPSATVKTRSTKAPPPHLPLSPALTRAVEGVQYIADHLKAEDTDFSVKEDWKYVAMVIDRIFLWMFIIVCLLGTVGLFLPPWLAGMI
Sequence of ETA (h) (P25101 21-427): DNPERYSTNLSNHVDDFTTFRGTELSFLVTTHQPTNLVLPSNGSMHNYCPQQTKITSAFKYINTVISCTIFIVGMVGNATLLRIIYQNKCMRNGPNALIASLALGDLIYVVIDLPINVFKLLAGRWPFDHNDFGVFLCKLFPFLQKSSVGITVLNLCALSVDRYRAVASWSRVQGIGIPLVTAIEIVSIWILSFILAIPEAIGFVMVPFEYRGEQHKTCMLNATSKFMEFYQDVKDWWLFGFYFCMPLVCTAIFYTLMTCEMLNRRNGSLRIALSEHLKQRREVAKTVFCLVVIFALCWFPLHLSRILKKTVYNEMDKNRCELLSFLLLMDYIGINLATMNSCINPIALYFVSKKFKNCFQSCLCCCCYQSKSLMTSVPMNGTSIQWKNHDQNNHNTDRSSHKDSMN

CCCCCC(=O)N[C@H]1CSCc2cc(cc(CN3CCN(C(=O)CN4CCN(CC(=O)O)CCN(CC(=O)O)CCN(CC(=O)O)CC4)CC3)c2)CSC[C@@H](C(=O)N[C@@H](CC(=O)O)C(N)=O)NC(=O)[C@H](Cc2ccccc2)NC(=O)[C@H](CCC(N)=O)NC(=O)[C@H]([C@@H](C)O)NC(=O)[C@@H]2CCCN2C(=O)[C@@H]2CCCN2C1=O [Compound 3BP-3407, Hex-[Cys(tMeBn(DOTA-PP))-Pro-Pro-Thr-Gln-Phe-Cys]-Asp-NH2] (Hexanoyl-CPPTQFCD-NH2; linker 1-7 via X1)
inhibition at 10 µM (H2 (h)): -5% | inhibition at 1 µM (Ataxin3): 1% | inhibition at 10 µM (Ataxin3): 10% | inhibition at 10 µM (alpha 1A (h)): 2% | inhibition at 10 µM [1]: -8% | inhibition at 1 µM [2]: 3% | inhibition at 10 µM [2]: 46% | inhibition at 10 µM (ETA (h)): -18%

CCCCCC(=O)N[C@H]1CSCc2cc(CSCCNC(=O)CN3CCN(CC(=O)O)CCN(CC(=O)O)CCN(CC(=O)O)CC3)cc(c2)CSC[C@@H](C(=O)O)NC(=O)[C@H](Cc2ccccc2)NC(=O)[C@H](CCC(N)=O)NC(=O)[C@H]([C@@H](C)O)NC(=O)[C@@H]2CCCN2C(=O)[C@@H]2CCCN2C1=O [Compound 3BP-3554, Hex-[Cys(tMeBn(DOTA-AET))-Pro-Pro-Thr-Gln-Phe-Cys]-OH]
inhibition at 10 µM (H2 (h)): -16% | inhibition at 1 µM (Ataxin3): 2% | inhibition at 10 µM (Ataxin3): -1% | inhibition at 10 µM (alpha 1A (h)): -12% | inhibition at 10 µM [1]: -2% | inhibition at 1 µM (DPP3): 2% | inhibition at 10 µM (DPP3): -1% | inhibition at 1 µM [2]: -4% | inhibition at 10 µM [2]: -2% | clearance (in vivo; 4 nmol/kg): 8.03 mL/min/kg | clearance (in vivo; 40 nmol/kg): 11.8 mL/min/kg | clearance (in vivo; 400 nmol/kg): 8.03 mL/min/kg | AUC(0-inf) (in vivo; 4 nmol/kg): 0.0083 µM·h | C0 (in vivo; 4 nmol/kg): 25.6 nM | half-life (in vivo; 4 nmol/kg): 23 min | Vd (in vivo; 4 nmol/kg, Vss, intravenous 4 nmol/kg): 0.21 L/kg | Vd (in vivo; 4 nmol/kg, Vz, intravenous 4 nmol/kg): 0.26 L/kg | AUC(0-inf) (in vivo; 40 nmol/kg): 0.056 µM·h | C0 (in vivo; 40 nmol/kg): 177 nM | half-life (in vivo; 40 nmol/kg): 59 min | Vd (in vivo; 40 nmol/kg, Vss, intravenous 40 nmol/kg): 0.32 L/kg | Vd (in vivo; 40 nmol/kg, Vz, intravenous 40 nmol/kg): 1.02 L/kg | AUC(0-inf) (in vivo; 400 nmol/kg): 0.961 µM·h | C0 (in vivo; 400 nmol/kg): 4970 nM | half-life (in vivo; 400 nmol/kg): 40 min | Vd (in vivo; 400 nmol/kg, Vss, intravenous 400 nmol/kg): 0.1 L/kg | Vd (in vivo; 400 nmol/kg, Vz, intravenous 400 nmol/kg): 0.21 L/kg | inhibition at 10 µM (ETA (h)): 6%
